# Data taken from patent US20210386069A1 (priority 2018, published 2021).
# Experiment: log P by HPLC on a reversed-phase column (C 18), EEC Directive 79/831 Annex V.A8
# Format: physicochemical
# Conditions: HPLC reversed-phase C 18, 40° C., 0.1% aqueous formic acid and acetonitrile, linear gradient 10% to 95% acetonitrile
# Method: In table 1, the log P values were determined in accordance with EEC Directive 79/831 Annex V.A8 by HPLC (High Performance Liquid Chromatography) on a reversed-phase column (C 18), using the method described below:
# temperature: 40° C.; mobile phases: 0.1% aqueous formic acid and acetonitrile; linear gradient from 10% acetonitrile to 95% acetonitrile;
# If more than one Log P value is available within the same method, all the values are given and separated by “;”.
# Calibration was carried out using unbranched alkan-2-ones (comprising 3 to 16 carbon atoms) with known log P values (determination of the log P values by the retention times using linear interpolation between two successive alkanones). lambda-max-values were determined using UV-spectra from 200 nm to 400 nm and the peak values of the chromatographic signals.
row,SMILES,logP
1,Cc1cc(Cl)ncc1-c1ccccc1Nc1cc2ccc(F)c(F)c2nc1C [I.086],3.98
2,CCCc1ncccc1-c1c(F)cccc1Nc1cc2ccc(F)c(F)c2nc1C [I.109],2.62
3,Cc1nc2c(F)c(F)ccc2cc1Nc1ccccc1-c1cncc(C(F)(F)F)c1 [I.122],3.65
4,CCCc1ccncc1-c1ccccc1Nc1cc2ccc(F)c(F)c2nc1C [I.062],2.41
5,Cc1cc(-c2c(F)cccc2Nc2cc3ccc(F)c(F)c3nc2C)ccn1 [I.033],1.88
6,Cc1nc2c(F)c(F)ccc2cc1Nc1cccc(F)c1-c1cncc(Cl)c1 [I.099],3.60
7,COc1nccc(-c2ccccc2Nc2cc3ccc(F)c(F)c3nc2C)c1Cl [I.116],4.09
8,CCc1ncccc1-c1c(F)cccc1Nc1cc2ccc(F)c(F)c2nc1C [I.069],2.41
9,Cc1nc2c(F)c(F)ccc2cc1Nc1cccc(F)c1-c1ccnnc1 [I.016],2.44
10,Cc1nc2c(F)c(F)ccc2cc1Nc1ccccc1-c1cnccc1Cl [I.039],3.22
11,Cc1nc2c(F)c(F)ccc2cc1Cc1cccc(F)c1-c1ccncc1F [I.041],3.40
12,Cc1nc2c(F)c(F)ccc2cc1Cc1cccc(F)c1-c1ccnc(F)c1 [I.044],3.65
13,Cc1nc2c(F)c(F)ccc2cc1Nc1cccc(F)c1-c1cc(Cl)cnc1F [I.128],4.05
14,COc1ccncc1-c1c(F)cccc1Nc1cc2ccc(F)c(F)c2nc1C [I.082],1.84
15,Cc1nc2c(F)c(F)ccc2cc1Nc1ccccc1-c1cc(Cl)ncc1F [I.098],3.91
16,Cc1nc2c(F)c(F)ccc2cc1Nc1ccccc1-c1cc(Cl)cnc1F [I.095],4.01
17,COc1cccc(-c2c(F)cccc2Nc2cc3ccc(F)c(F)c3nc2C)n1 [I.080],4.55
18,CCc1ccncc1-c1ccccc1Nc1cc2ccc(F)c(F)c2nc1C [I.023],2.08
19,Cc1nc2c(F)c(F)ccc2cc1Nc1cccc(F)c1C1=CCCCO1 [I.018],4.44
20,Cc1nc2c(F)c(F)ccc2cc1Nc1ccccc1-c1cncc(Cl)c1 [I.040],3.54
21,Cc1nc2c(F)c(F)ccc2cc1Nc1ccccc1-c1cc(F)cnc1Cl [I.097],3.81
22,Cc1nc2c(F)c(F)ccc2cc1Nc1ccccc1-c1ccncc1C#N [I.021],1.41

row,SMILES,logP
1,COc1nccc(-c2c(F)cccc2Nc2cc3ccc(F)c(F)c3nc2C)c1Cl [I.132],4.09
2,Cc1nc2c(F)c(F)ccc2cc1Nc1cccc(F)c1-c1cc(F)cnc1Cl [I.127],3.87
3,CCc1ccncc1-c1c(F)cccc1Nc1cc2ccc(F)c(F)c2nc1C [I.068],2.41
4,Cc1nc2c(F)c(F)ccc2cc1Nc1ccccc1-c1ccnnc1 [I.003],2.28
5,Cc1nc2c(F)c(F)ccc2cc1Nc1cccc(F)c1-c1ccnc(Cl)c1 [I.091],3.69
6,Cc1cncc(C)c1-c1c(F)cccc1Nc1cc2ccc(F)c(F)c2nc1C [I.070],2.28
7,Cc1cc(-c2c(F)cccc2Nc2cc3ccc(F)c(F)c3nc2C)cnc1Cl [I.119],3.98
8,COc1ncccc1-c1c(F)cccc1Nc1cc2ccc(F)c(F)c2nc1C [I.076],3.70
9,Cc1nc2c(F)c(F)ccc2cc1Nc1ccccc1-c1cccc(Cl)n1 [I.035],4.97
10,COc1cc(-c2ccccc2Nc2cc3ccc(F)c(F)c3nc2C)ccn1 [I.028],3.56
11,Cc1nc2c(F)c(F)ccc2cc1Nc1ccccc1-c1ccc(C(F)(F)F)nc1 [I.123],3.91
12,CSc1ccc(-c2c(F)cccc2Nc2cc3ccc(F)c(F)c3nc2C)cn1 [I.114],3.91
13,COc1ccc(-c2c(F)cccc2Nc2cc3ccc(F)c(F)c3nc2C)c(OC)n1 [I.131],4.43
14,Cc1nc2c(F)c(F)ccc2cc1Nc1ccccc1-c1cccc(=O)n1C [I.026],2.52
15,Cc1nc2c(F)c(F)ccc2cc1Nc1cccc(F)c1-c1ccncc1C#N [I.063],1.46
16,Cc1nc2c(F)c(F)ccc2nc1Nc1cccc(F)c1-c1ccncc1F [I.056],2.98
17,Cc1nc2c(F)c(F)ccc2cc1Nc1ccccc1-c1ccc(OC(C)C)nc1 [I.107],4.43
18,Cc1cc(Cl)ncc1-c1c(F)cccc1Nc1cc2ccc(F)c(F)c2nc1C [I.121],4.01
19,Cc1nc2c(F)c(F)ccc2cc1Nc1ccccc1-c1cccnc1C1CC1 [I.059],2.80
20,Cc1nc2c(F)c(F)ccc2cc1Nc1c(F)cccc1-c1ccncc1F [I.048],3.04
21,Cc1nc2c(F)c(F)ccc2cc1Nc1cccc(F)c1-c1cccnc1 [I.009],2.28
22,Cc1cnc(Cl)c(-c2c(F)cccc2Nc2cc3ccc(F)c(F)c3nc2C)c1 [I.118],3.75

row,SMILES,logP
1,Cc1nc2c(F)c(F)ccc2cc1Nc1cccc(F)c1-c1ccc(F)nc1F [I.103],3.84
2,CSc1ncccc1-c1c(F)cccc1Nc1cc2ccc(F)c(F)c2nc1C [I.115],3.98
3,Cc1nc2c(F)c(F)ccc2cc1Nc1ccccc1-c1ccncc1Cl [I.034],3.37
4,CCOc1ncccc1-c1ccccc1Nc1cc2ccc(F)c(F)c2nc1C [I.066],4.24
5,CCc1cnccc1-c1c(F)cccc1Nc1cc2ccc(F)c(F)c2nc1C [I.067],2.41
6,Cc1nc2c(F)c(F)ccc2cc1Nc1cccc(F)c1-c1cncc(C#N)c1 [I.064],3.16
7,CCCc1ncccc1-c1ccccc1Nc1cc2ccc(F)c(F)c2nc1C [I.060],2.21
8,Cc1nc2c(F)c(F)ccc2cc1Nc1ccccc1-c1ccnc(Cl)c1 [I.036],3.56
9,COc1ccc(-c2c(F)cccc2Nc2cc3ccc(F)c(F)c3nc2C)cn1 [I.077],3.71
10,Cc1nc2c(F)c(F)ccc2cc1Nc1ccccc1-c1ccc(C#N)nc1 [I.019],3.25
11,COc1cnccc1-c1c(F)cccc1Nc1cc2ccc(F)c(F)c2nc1C [I.081],2.44
12,COc1cc(-c2c(F)cccc2Nc2cc3ccc(F)c(F)c3nc2C)ccn1 [I.083],3.71
13,Fc1ccc(Nc2cnc3ccccc3c2)c(-c2cccnc2)c1 [I.001],1.39
14,CCOc1ccc(-c2c(F)cccc2Nc2cc3ccc(F)c(F)c3nc2C)cn1 [I.112],4.09
15,COc1cccc(-c2ccccc2Nc2cc3ccc(F)c(F)c3nc2C)n1 [I.029],4.66
16,Cc1nc2c(F)c(F)ccc2cc1Nc1ccccc1-c1cc(F)nc(F)c1 [I.054],3.91
17,Cc1nc2c(F)c(F)ccc2cc1Nc1cccc(F)c1-c1ccncc1 [I.010],2.01
18,Cc1cc(-c2c(F)cccc2Nc2cc3ccc(F)c(F)c3nc2C)cnc1F [I.089],3.75
19,Cc1nc2c(F)c(F)ccc2cc1Nc1cccc(F)c1-c1ccnc(F)c1F [I.101],3.81
20,Cc1nc2c(F)c(F)ccc2cc1Nc1ccccc1-c1ccc(F)nc1F [I.055],3.81
21,Fc1cc(-c2cscc2Cc2cnc3c(F)cccc3c2)ccn1 [I.139],3.11

# Same assay, conditions: reversed-phase HPLC column (C 18); preparation examples; log P as defined in table 1 (HPLC, 0.1% aqueous formic acid/acetonitrile)
row,SMILES,chromatographic logP
1,"Cc1nc2c(F)c(F)ccc2cc1Cc1cscc1-c1ccnc(F)c1 [I.138, 7,8-difluoro-3-{[4-(2-fluoropyridin-4-yl)-3-thienyl]methyl}-2-methylquinoline]",3.64
2,"Cc1nc2c(F)c(F)ccc2cc1Nc1cccc(F)c1Br [N-(2-bromo-3-fluorophenyl)-7,8-difluoro-2-methylquinolin-3-amine]",3.28
3,Nc1cccc(F)c1-c1ccncc1F,2.38
